Values quoted from earlier work, collected in patent publication US20250195486A1 (Closed Loop Medicine Ltd., priority 2023, published 2025).
“Also recorded” adds a separate entry of the source. Where two headings read alike, the source gives them in different places.

Experiments:
P-gp = P-gp (Homo sapiens, UniProt P08183)
[1] = Salazar et al. (2012)
[2] = population mean; Song et al. (2014), Phases I and II
[3] = Yin et al. (2014)
[4] = Niebecker et al. (2015)
patients with NVAF [5] = conditions: patient with normal renal function
patients with NVAF [6] = conditions: 12 weeks
[7] = not given; remark: listed apart in the source
patients with AF = conditions: atrial fibrillation
[8] = population mean, Phases I and II
[9] = population mean, Phases I, II and III
[10] = population mean, Phases I and III
[11] = normally distributed, mean 0, Krekels et al. (2016) model
[12] = population mean, Krekels et al. (2016), Phases I and III

Chain of P-gp (P08183 whole entry): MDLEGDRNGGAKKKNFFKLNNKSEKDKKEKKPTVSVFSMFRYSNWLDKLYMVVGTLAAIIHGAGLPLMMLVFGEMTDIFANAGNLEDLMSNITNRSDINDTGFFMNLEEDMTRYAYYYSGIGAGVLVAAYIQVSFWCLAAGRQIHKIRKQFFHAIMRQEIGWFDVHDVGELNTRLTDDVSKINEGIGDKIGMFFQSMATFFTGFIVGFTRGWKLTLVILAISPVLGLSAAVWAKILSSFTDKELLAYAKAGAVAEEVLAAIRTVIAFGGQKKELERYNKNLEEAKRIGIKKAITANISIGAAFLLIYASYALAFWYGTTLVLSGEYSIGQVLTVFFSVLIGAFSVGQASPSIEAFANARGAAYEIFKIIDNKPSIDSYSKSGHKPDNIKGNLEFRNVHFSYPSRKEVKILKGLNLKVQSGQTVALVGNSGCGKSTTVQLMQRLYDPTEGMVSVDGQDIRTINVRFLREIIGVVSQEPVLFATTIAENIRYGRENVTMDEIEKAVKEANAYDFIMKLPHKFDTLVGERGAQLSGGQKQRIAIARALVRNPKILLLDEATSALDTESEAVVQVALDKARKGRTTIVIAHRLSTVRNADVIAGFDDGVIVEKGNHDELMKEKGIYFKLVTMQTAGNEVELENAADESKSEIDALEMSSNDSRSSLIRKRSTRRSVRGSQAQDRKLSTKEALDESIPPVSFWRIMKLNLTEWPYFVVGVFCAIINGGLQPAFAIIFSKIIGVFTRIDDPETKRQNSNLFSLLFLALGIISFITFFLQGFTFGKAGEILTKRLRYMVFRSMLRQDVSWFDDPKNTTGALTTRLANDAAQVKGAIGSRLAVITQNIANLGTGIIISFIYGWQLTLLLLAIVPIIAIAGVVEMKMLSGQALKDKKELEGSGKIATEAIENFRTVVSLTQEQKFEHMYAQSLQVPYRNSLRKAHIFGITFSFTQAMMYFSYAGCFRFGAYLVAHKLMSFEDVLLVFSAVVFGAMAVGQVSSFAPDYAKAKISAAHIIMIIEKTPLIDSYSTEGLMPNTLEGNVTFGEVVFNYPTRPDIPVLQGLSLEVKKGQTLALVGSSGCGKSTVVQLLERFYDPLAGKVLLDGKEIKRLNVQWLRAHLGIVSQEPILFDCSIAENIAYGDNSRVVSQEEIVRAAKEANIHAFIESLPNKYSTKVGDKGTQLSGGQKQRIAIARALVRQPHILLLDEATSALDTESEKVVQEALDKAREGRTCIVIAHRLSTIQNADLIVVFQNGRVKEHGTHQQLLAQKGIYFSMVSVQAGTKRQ

In the case of `CN1CCc2nc(C(=O)N[C@@H]3C[C@@H](C(=O)N(C)C)CC[C@@H]3NC(=O)C(=O)Nc3ccc(Cl)cn3)sc2C1` [edoxaban], the “Metabolism (extent)” value (by CES1, CYP3A4 and glucuronidation) is listed as under 30%, the “time of peak plasma concentrations” value (following oral administration) is listed as 1 to 2 h and the “time of peak levels” value (immediate-release doses, taken without food) is listed as 1 to 2 h. The “time of peak levels with food” value (immediate-release doses, with food vs without food) was “an hour later”, the “Renal clearance as share of total body clearance” value (in vivo) was about 50% and the “accumulation upon repeat dosing” value (in vivo) was “minimal accumulation”. For the same molecule, the “effect of food on rate of absorption” value (in vivo) was “decreases the rate of absorption”, the “effect of food on total exposure” value (in vivo) was “does not affect” and the “increase of total systemic exposure (AUC∞)” value (moderate or severe renal impairment vs normal renal function) was “almost two-fold”. For the same molecule, the bioavailability (oral) was “approximately 62%”, the terminal half-life (oral administration) was 10 to 14 h and the “dose linearity of pharmacokinetics” value (over the therapeutic range of doses) was “linear”. For the same molecule, the “unchanged drug found in the faeces” value (partly due to biliary elimination) was 30-50%, the P-gp substrate status (P-gp) was “substrate of P-gp” and the “Significant covariates: Body weight (PK parameters influenced)” value (shortened to “Significant covariates: Body weight”) [1] was “Vc/F”. For the same molecule, the “Significant covariates: CRCL (PK parameters influenced)” value (shortened to “Significant covariates: CRCL”) [1] was “CL/F”, the “Significant covariates: Food (PK parameters influenced)” value [1] was “Ka” and the “Significant covariates: P-gp inhibition (PK parameters influenced)” value (“Significant covariates: P-gp inhibition” below) [1] was “CL/F, Ka, F”. For the same molecule, the “Significant covariates: Patient status (PK parameters influenced)” value [1] was “Vc/F”, the CL/F [1, 8] was 36 L/h and the F [1, 8] was 1. The Ka [1, 8] was 5.87 h⁻¹, the Lag time [1, 8] was 0.42 h and the Q/F [1, 8] was 6.42 L/h. For the same molecule, the Vc/F [1, 8] was 244 L, the Vp/F [1, 8] was 90.3 L and the CL/F [2] was 32.1 L/h. For the same molecule, the Ka [2] was 3.54 h⁻¹, the Lag time [2] was 0.39 h and the Q/F [2] was 8.85 L/h. The Vc/F [2] was 214 L, the Vp/F [2] was 134 L and the “Significant covariates: Age (PK parameters influenced)” value [3] was “CL/F, Ka”. For the same molecule, the “Significant covariates: Body weight” value [3] was “CL/F, Vc/F”, the “Significant covariates: CRCL” value [3] was “CL/F” and the “Significant covariates: P-gp inhibition” value [3] was “Vc/F, Ka, F”. For the same molecule, the CL/F [3, 9] was 11.4 L/h, the F [3, 9] was 0.58 and the Ka [3, 9] was 1.08 h⁻¹. The Lag time [3, 9] was 0.25 h, the Q/F [3, 9] was 2.73 L/h and the Vc/F [3, 9] was 151 L. For the same molecule, the Vp/F [3, 9] was 42.9 L, the “Significant covariates: Body weight” value [4] was “CLNR/F, Q/F,; also recorded: Vc/F, Vp/F” and the “Significant covariates: CRCL” value [4] was “CL/F”. For the same molecule, the “Significant covariates: P-gp inhibition” value [4] was “CL/F, F”, the “Significant covariates: Race (PK parameters influenced)” value [4] was “Vc/F” and the “CL/F (CLNR/F)” value ([4]; non-renal clearance, population mean, Phases I and III) was 15.5 L/h. For the same molecule, the Ka [4, 10] was 3.35 h⁻¹, the Lag time [4, 10] was 0.25 h and the Q/F [4, 10] was 5.92 L/h. The Vc/F [4, 10] was 209 L, the Vp/F [4, 10] was 92.3 L and the “trough edoxaban level required to reduce the risk of a major bleeding event below 2%” value (patients with NVAF [5]) was under 30 ng/mL. For the same molecule, the “trough edoxaban level required to reduce the risk of a major bleeding event below […]” value (patients with NVAF [5]) was under 40 ng/mL, the “risk of bleeding, 30 mg twice-daily vs 60 mg once-daily” value (patients with NVAF [6]) was “greater” and the “Significant covariates: CRCL” value ([7]; Krekels et al. (2016)) was “CL/F”. The “CL/F (CLNR/F)” value ([7]; non-renal clearance, population mean, Krekels et al. (2016), Phases I and III) was 13.8 L/h, the “variance of ηCL/F (between-subject variability)” value [7, 11] was 0.0185 and the “variance of ηQ/F (between-subject variability)” value [7, 11] was 0.2285. For the same molecule, the “variance of ηVc/F (between-subject variability)” value [7, 11] was 0.04623, the “variance of ηVp/F (between-subject variability)” value [7, 11] was 0.2285 and the Ka [7, 12] was 2.16 h⁻¹. The Lag time [7, 12] was 0.25 h, the Q/F [7, 12] was 5.75 L/h and the Vc/F [7, 12] was 194 L. For the same molecule, the Vp/F [7, 12] was 88.6 L.
For `CC(=O)CC(c1ccccc1)c1c(O)c2ccccc2oc1=O` (centres unmarked) [warfarin], the reduction of stroke (patients with AF) is given as “about 60%”.
